Measurements: ChEMBL document CHEMBL4190187, “Discovery of pyrazolopyrimidine derivatives as novel inhibitors of ataxia telangiectasia and rad3 related protein (ATR)” (Bioorg Med Chem Lett, 2017)

What was measured:
[1] = biological target: Serine/threonine-protein kinase 33 (Homo sapiens) (UniProt Q9BYT3); assay: Inhibition of recombinant full-length human STK33 at 1 uM using myelin basic protein as substrate after 40 mins in presence of [gamma-33P]ATP by scintillation counting method
[2] = biological target: Protein kinase C zeta type (Homo sapiens) (UniProt Q05513); assay: Inhibition of recombinant human PKCzeta (2 to end residues) at 1 uM using ERMRPRKRQGSVRRRV as substrate after 40 mins in presence of [gamma-33P]ATP by scintillation counting method
[3] = biological target: Eukaryotic translation initiation factor 2-alpha kinase 3 (Homo sapiens) (UniProt Q9NZJ5); assay: Inhibition of recombinant human PEK (536 to end residues) at 1 uM using RSRSRSRSRSRSRSR as substrate after 40 mins in presence of [gamma-33P]ATP by scintillation counting method
[4] = tested on: Proto-oncogene tyrosine-protein kinase receptor Ret (Homo sapiens), P07949 [V804M]; assay: Inhibition of recombinant human RET V804M mutant (658 to end residues) at 1 uM using KKKVSRSGLYRSPSMPENLNRPR as substrate after 40 mins in presence of [gamma-33P]ATP by scintillation counting method
[5] = biological target: G protein-coupled receptor kinase 3 (Homo sapiens) (UniProt P35626); assay: Inhibition of recombinant full-length human GRK3 at 1 uM using casein as substrate after 40 mins in presence of [gamma-33P]ATP by scintillation counting method
[6] = biological target: Calcium/calmodulin-dependent protein kinase type 1B (Homo sapiens) (UniProt Q6P2M8); assay: Inhibition of recombinant full-length human CAMK1beta at 1 uM using KKLRRTLSFAEPG as substrate after 40 mins in presence of [gamma-33P]ATP by scintillation counting method
[7] = biological target: MAP kinase-interacting serine/threonine-protein kinase 2 (Homo sapiens) (UniProt Q9HBH9); assay: Inhibition of recombinant full-length human Mnk2 at 1 uM using myelin basic protein as substrate after 40 mins in presence of [gamma-33P]ATP by scintillation counting method
[8] = biological target: Mitogen-activated protein kinase kinase kinase 2 (Homo sapiens) (UniProt Q9Y2U5); assay: Inhibition of recombinant full-length human MEKK2 at 1 uM using myelin basic protein as substrate after 40 mins in presence of [gamma-33P]ATP by scintillation counting method
[9] = tested on: Ribosomal protein S6 kinase beta-1 (Homo sapiens), P23443 [T412E]; assay: Inhibition of recombinant human p70S6K T412E mutant (1 to 421 residues) at 1 uM using KKRNRTLTV as substrate after 40 mins in presence of [gamma-33P]ATP by scintillation counting method
[10] = biological target: Maternal embryonic leucine zipper kinase (Homo sapiens) (UniProt Q14680); assay: Inhibition of recombinant human MELK (1 to 340 residues) at 1 uM using KKLNRTLSFAEPG as substrate after 40 mins in presence of [gamma-33P]ATP by scintillation counting method
[11] = biological target: Tyrosine-protein kinase receptor TYRO3 (Homo sapiens) (UniProt Q06418); assay: Inhibition of recombinant human Rse (451 to end residues) at 1 uM using KVEKIGEGTYGVVYK as substrate after 40 mins in presence of [gamma-33P]ATP by scintillation counting method
[12] = tested on: Macrophage colony-stimulating factor 1 receptor (Homo sapiens), P07333 [Y969C]; assay: Inhibition of recombinant human Fms Y969C mutant (538 to end residues) at 1 uM using EEEEYEEEEEEYYIIEEEEEEYEEEEEEYYEEEEEEKKKK as substrate after 40 mins in presence of [gamma-33P]ATP by scintillation counting method
[13] = biological target: Tyrosine-protein kinase BTK (Homo sapiens, UniProt Q06187); assay: Inhibition of recombinant full-length human BTK at 1 uM using KVEKIGEGTYGVVYK as substrate after 40 mins in presence of [gamma-33P]ATP by scintillation counting method
[14] = tested on: Epidermal growth factor receptor (Homo sapiens), P00533 [L858R,T790M]; assay: Inhibition of recombinant human EGFR T790M/L858R double mutant (696 to end residues) at 1 uM using GGMEDIYFEFMGGKKK as substrate after 40 mins in presence of [gamma-33P]ATP by scintillation counting method
[15] = biological target: Homeodomain-interacting protein kinase 1 (Homo sapiens) (UniProt Q86Z02); assay: Inhibition of recombinant human HIPK1 (158 to 555 residues) at 1 uM using myelin basic protein as substrate after 40 mins in presence of [gamma-33P]ATP by scintillation counting method
[16] = biological target: Dual specificity mitogen-activated protein kinase kinase 7 (Homo sapiens) (UniProt O14733); assay: Inhibition of recombinant human MKK7beta (2 to end residues) at 1 uM using inactive JNK171 as substrate after 40 mins in presence of [gamma-33P]ATP by scintillation counting method
[17] = biological target: Non-receptor tyrosine-protein kinase TYK2 (Homo sapiens) (UniProt P29597); assay: Inhibition of recombinant human TYK2 (875 to end residues) at 1 uM using GGMEDIYFEFMGGKKK as substrate after 40 mins in presence of [gamma-33P]ATP by scintillation counting method
[18] = biological target: Activated CDC42 kinase 1 (Homo sapiens) (UniProt Q07912); assay: Inhibition of recombinant human ACK1 (1 to 389 residues) at 1 uM using EFPIYDFLPAKKK as substrate after 40 mins in presence of [gamma-33P]ATP by scintillation counting method
[19] = tested on: Angiopoietin-1 receptor (Homo sapiens), Q02763 [R849W]; assay: Inhibition of recombinant activated human Tie2 R849W mutant (771 to end residues) at 1 uM using EFPIYDFLPAKKK as substrate after 40 mins in presence of [gamma-33P]ATP by scintillation counting method
[20] = biological target: Death-associated protein kinase 1 (Homo sapiens) (UniProt P53355); assay: Inhibition of recombinant human DAPK1 (1 to 296 residues) at 1 uM using KKLNRTLSFAEPG as substrate after 40 mins in presence of [gamma-33P]ATP by scintillation counting method
[21] = biological target: Fibroblast growth factor receptor 1 (Homo sapiens) (UniProt P11362); assay: Inhibition of recombinant human FGFR1 (456 to 765 residues) at 1 uM using KKKSPGEYVNIEFG as substrate after 40 mins in presence of [gamma-33P]ATP by scintillation counting method
[22] = biological target: Mitogen-activated protein kinase kinase kinase 20 (Homo sapiens) (UniProt Q9NYL2); assay: Inhibition of recombinant full-length human ZAK at 1 uM using myelin basic protein as substrate after 40 mins in presence of [gamma-33P]ATP by scintillation counting method
[23] = biological target: Epidermal growth factor receptor (Homo sapiens) (UniProt P00533); assay: Inhibition of recombinant human EGFR (696 to end residues) at 1 uM using poly(Glu,Tyr) 4:1 as substrate after 40 mins in presence of [gamma-33P]ATP by scintillation counting method
Epidermal growth factor receptor (Homo sapiens), sequence (P00533 whole entry): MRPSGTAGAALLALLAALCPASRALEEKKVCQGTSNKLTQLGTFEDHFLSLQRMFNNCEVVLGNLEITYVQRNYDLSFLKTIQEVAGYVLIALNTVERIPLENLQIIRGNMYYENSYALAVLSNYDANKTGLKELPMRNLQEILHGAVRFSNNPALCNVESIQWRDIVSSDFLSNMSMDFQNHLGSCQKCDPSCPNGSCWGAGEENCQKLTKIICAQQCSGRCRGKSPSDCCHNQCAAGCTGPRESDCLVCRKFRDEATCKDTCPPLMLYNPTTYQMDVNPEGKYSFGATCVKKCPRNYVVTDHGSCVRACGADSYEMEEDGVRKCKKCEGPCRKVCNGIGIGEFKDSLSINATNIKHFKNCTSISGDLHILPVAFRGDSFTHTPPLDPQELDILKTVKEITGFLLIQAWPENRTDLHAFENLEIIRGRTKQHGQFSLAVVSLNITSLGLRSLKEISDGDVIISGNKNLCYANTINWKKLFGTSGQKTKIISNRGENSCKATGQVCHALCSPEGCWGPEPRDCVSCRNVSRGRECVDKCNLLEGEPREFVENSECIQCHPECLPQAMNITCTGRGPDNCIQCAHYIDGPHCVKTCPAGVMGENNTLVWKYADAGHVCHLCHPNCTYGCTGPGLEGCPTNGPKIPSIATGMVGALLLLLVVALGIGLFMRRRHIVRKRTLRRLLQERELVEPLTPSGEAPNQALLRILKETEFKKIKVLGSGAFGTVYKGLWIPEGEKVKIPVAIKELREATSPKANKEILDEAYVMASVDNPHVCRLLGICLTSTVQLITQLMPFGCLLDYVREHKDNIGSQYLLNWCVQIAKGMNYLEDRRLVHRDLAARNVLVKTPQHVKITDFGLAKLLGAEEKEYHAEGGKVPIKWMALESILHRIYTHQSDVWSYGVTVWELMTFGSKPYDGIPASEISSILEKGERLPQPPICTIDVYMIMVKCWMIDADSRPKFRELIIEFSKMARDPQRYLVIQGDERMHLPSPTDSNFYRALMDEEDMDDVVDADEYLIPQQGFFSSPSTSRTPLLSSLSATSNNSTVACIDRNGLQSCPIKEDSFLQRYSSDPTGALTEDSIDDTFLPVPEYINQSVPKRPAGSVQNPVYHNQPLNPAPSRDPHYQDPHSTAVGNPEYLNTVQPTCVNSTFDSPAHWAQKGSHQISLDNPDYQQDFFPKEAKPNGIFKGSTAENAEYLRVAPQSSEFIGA

Dual specificity mitogen-activated protein kinase kinase 7 (Homo sapiens), sequence (O14733 whole entry): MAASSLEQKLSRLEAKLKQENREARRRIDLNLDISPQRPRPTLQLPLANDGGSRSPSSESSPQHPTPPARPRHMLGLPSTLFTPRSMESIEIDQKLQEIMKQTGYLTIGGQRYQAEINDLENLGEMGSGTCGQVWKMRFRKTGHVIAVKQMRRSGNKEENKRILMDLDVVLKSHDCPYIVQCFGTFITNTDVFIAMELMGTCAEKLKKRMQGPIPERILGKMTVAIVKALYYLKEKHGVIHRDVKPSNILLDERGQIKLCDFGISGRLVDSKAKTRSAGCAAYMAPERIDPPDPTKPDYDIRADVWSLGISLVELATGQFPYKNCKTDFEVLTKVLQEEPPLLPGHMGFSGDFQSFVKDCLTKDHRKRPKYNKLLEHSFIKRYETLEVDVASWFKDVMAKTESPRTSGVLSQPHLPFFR
Fibroblast growth factor receptor 1 (Homo sapiens), sequence (P11362 22-822 limits assumed): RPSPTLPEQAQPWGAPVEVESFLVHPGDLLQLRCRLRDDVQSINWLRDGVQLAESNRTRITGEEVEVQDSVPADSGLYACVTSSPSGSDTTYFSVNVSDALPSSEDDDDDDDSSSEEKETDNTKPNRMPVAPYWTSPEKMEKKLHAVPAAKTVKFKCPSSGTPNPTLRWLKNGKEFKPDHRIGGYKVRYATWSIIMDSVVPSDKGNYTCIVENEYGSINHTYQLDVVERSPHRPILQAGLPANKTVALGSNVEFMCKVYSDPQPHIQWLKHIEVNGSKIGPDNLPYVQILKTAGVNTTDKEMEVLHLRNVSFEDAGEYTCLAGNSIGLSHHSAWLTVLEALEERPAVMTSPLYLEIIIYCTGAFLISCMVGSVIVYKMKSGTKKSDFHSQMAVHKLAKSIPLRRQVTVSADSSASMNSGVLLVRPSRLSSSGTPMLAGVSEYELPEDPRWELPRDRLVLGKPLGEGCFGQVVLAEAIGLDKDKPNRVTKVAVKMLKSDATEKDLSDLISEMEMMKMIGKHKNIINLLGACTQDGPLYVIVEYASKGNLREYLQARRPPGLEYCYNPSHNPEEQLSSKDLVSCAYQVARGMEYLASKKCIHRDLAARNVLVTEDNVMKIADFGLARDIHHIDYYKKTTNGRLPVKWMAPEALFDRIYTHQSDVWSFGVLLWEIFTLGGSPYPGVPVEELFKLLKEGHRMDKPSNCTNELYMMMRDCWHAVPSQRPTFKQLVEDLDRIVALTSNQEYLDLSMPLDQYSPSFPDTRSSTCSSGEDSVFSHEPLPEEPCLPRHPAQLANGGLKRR
Angiopoietin-1 receptor (Homo sapiens), Q02763 [R849W], sequence (Q02763 whole entry R849W, the tested form may be a part): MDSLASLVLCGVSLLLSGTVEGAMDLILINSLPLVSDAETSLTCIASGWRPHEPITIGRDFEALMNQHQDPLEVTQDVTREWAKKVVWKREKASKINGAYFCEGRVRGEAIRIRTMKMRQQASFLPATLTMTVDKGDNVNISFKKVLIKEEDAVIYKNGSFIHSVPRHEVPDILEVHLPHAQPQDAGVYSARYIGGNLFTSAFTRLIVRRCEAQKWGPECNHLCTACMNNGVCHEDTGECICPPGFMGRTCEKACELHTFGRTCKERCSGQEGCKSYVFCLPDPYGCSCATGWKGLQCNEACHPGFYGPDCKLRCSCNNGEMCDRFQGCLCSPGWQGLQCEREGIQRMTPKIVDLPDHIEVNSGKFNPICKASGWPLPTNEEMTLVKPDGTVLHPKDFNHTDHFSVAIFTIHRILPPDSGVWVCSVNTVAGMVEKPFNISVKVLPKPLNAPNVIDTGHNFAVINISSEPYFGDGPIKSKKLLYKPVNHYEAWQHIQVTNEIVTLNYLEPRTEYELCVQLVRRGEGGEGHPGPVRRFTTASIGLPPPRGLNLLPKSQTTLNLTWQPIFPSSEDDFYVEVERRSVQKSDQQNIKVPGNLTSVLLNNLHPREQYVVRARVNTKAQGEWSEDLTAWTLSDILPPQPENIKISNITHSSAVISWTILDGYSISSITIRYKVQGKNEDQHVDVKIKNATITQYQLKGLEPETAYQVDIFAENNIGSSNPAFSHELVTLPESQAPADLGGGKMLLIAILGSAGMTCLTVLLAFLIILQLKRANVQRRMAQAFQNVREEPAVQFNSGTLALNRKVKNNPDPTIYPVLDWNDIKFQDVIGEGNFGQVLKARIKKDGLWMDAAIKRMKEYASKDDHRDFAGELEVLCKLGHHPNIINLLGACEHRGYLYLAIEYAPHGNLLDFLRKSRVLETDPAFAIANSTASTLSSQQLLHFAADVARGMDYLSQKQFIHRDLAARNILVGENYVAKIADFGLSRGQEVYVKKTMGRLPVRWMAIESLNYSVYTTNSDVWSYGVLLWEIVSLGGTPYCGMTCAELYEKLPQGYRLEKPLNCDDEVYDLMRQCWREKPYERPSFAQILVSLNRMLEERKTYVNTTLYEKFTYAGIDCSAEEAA
MAP kinase-interacting serine/threonine-protein kinase 2 (Homo sapiens), sequence (Q9HBH9 whole entry, looked up): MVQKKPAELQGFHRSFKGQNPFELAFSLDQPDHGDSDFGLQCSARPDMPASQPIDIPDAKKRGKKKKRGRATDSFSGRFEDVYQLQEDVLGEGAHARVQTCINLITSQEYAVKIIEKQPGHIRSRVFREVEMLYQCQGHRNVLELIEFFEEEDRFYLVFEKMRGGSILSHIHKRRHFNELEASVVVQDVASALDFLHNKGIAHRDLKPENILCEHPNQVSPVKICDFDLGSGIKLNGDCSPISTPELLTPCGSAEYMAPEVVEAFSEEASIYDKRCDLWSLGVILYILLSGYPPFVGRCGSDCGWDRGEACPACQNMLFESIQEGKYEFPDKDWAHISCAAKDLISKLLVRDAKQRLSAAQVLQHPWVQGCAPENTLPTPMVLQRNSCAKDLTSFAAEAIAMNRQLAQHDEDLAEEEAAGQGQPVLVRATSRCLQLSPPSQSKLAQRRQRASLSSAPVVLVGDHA
Ribosomal protein S6 kinase beta-1 (Homo sapiens), P23443 [T412E], sequence (P23443 whole entry T412E, looked up, the tested form may be a part): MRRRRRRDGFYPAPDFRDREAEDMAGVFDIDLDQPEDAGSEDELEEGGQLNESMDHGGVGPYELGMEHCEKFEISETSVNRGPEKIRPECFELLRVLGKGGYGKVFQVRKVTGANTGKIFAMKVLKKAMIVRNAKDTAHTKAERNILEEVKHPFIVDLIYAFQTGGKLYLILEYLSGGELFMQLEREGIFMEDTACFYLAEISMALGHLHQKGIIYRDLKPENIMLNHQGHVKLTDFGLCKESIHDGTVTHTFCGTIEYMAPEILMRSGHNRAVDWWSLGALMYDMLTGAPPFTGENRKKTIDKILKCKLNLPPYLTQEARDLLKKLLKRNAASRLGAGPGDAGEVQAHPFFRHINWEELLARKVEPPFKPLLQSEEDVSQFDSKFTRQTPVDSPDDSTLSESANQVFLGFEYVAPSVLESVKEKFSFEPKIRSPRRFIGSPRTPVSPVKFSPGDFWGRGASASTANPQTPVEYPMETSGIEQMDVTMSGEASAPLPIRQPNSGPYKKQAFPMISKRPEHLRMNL
Calcium/calmodulin-dependent protein kinase type 1B (Homo sapiens), sequence (Q6P2M8 whole entry): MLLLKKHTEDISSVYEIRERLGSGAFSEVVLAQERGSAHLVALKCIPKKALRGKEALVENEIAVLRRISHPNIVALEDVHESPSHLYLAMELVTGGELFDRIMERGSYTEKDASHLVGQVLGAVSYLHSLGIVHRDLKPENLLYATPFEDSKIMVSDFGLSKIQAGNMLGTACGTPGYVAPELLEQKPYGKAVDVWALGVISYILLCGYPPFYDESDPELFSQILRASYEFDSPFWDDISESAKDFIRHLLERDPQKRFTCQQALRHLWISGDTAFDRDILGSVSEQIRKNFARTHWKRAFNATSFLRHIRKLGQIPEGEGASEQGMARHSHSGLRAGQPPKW

`CS(=O)(=O)c1ccc(-n2nc(-c3cnc4[nH]ccc4c3)c3c(N)ncnc32)cc1` was tested, and the inhibition [1] was 4%, the inhibition [2] was 3% and the inhibition [3] was 13%. For the same compound, the inhibition [4] was 14%, the inhibition [5] was 1% and the inhibition [6] was -5%. The inhibition [7] was -6%, the inhibition [8] was 5% and the inhibition [9] was -2%. It also gave an inhibition [10] of 28%, an inhibition [11] of 4% and an inhibition [12] of 69%. The inhibition [13] was 25%, the inhibition [14] was 27% and the inhibition [15] was -2%. The inhibition [16] was -4%, the inhibition [17] was 8% and the inhibition [18] was 44%. It also gave an inhibition [19] of 1%, an inhibition [20] of -2% and an inhibition [21] of 63%. For the same compound, the inhibition [22] was 17% and the inhibition [23] was 3%.
